“Also recorded” adds a separate entry of the source. Like-named read-outs stand apart in the source and are kept apart here. Where a SMILES comes first, the peptide text is derived from it. Bridges are numbered along the chain shown (N, C = ends). Where no end group is shown, it is not given here.
Legend:
[1] = Oxidative folding (disulfide formation) in Tris HCl pH 7.5; assay type: physicochemical; conditions: Tris HCl 100 mM pH 7.5, open vessel, RP-HPLC-ESI-MS after iodoacetamide alkylation
Protocol: Reduced HBD3 was dissolved in Tris HCl 100 mM pH 7.5 (final peptide concentration 0.5 mg/mL) and shaken in an open vessel, with periodic withdrawal of aliquots. After alkylation of the free thiol groups with iodoacetamide solution, 100 μg of each the aliquot were analysed through RP-HPLC-ESI-MS to evaluate the oxidation status. The remaining 200 μg were purified via RP-HPLC to eliminate excess iodoacetamide, lyophilized, and subjected to tryptic digestion. Tryptic fragments were then indentified through RP-HPLC-ESI-MS. The same procedure, except tryptic digestion, was used for peptides γ and ε. Full details are given in the SI.

[2] = human serum from an healthy donor [240 µl 20% (v/v) in PBS]; conditions: 37 °C, up to 24 h
human serum = conditions: up to 60 min
[3] = test system: elastolytic protease cathepsins; conditions: cited from earlier work
CD98_304-414 = target: T1, CD98_304-414 (Homo sapiens, UniProt P08195); assay: SPR binding to immobilized CD98_304-414; conditions: 25 °C
T1 construct: GST-CD98 (102-630) and the truncated GST-CD98 (304-414); purchased Novus Biologicals, Littleton, CO
T1 sequence (P08195 304-414 isoform P08195-1): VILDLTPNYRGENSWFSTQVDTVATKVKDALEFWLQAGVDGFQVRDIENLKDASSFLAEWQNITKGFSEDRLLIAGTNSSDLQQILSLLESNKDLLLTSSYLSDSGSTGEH
Protocol: (§1) Surface Plasmon Resonance experiments were performed as previously described. For details, see SI. […]
(§2) Surface Plasmon resonance. Surface Plasmon resonance (SPR) experiments were performed using a Biacore T200 system (GE Healthcare, Uppsala, Sweden), at 25 °C . Binding assays were carried out between various CD98 sequences and both reduced and oxidized HBD3. The residue numbering […]
(§3) (Novus Biologicals, Littleton, CO) were immobilized on a CM4 and/or a CM5 sensor chip (research grade) by the standard amine coupling procedure, using HBS-EP buffer (HEPES 10 mM, NaCl 150 mM, EDTA 3 mM, Surfactant P20 0.005%, pH 7.4), as running buffer. CD98 was immobilized through activation of the sensor chip with 60 µL of N-hydroxysuccinimide and N-ethyl-N-(dimethylaminopropyl)-carbodiimide at 10 µL min-1, followed by a 30 µL injection of protein diluted in 10 mM sodium acetate buffer, pH 4.0. Unreacted activated groups were blocked by a 60 µL injection of 1 M ethanolamine at 10 µL min-1. The final amount of immobilized CD98 was typically between ~ 1500 and 5000 RU, corresponding to a protein concentration of 15 ÷ 50 mg/mL on the surface layer. Subsequently, the peptides or full-length HBD3 were injected at various concentrations (100 nM–100 µM), using HBS-EP as running buffer. The binding assays were performed under previously optimized conditions14, i.e. a contact time of 120 s, a dissociation time of 1000 s, and a flow rate of 30 µL min-1.
(§4) The SPR sensorgrams were analyzed by curve-fitting using the Biacore T200 Evaluation software.
(§5) Dose response curves were plotted using the SPR sensorgrams and the corresponding fit. Various

CD98_103-630 = target: T2, CD98_103-630 (Homo sapiens, UniProt P08195); assay: SPR binding to immobilized CD98_103-630; conditions: for Koff1 / Koff2 / Kon2: 25 °C, immobilized CD98_103-630; for Kon1: Biacore T200, 25 °C, HBS-EP pH 7.4, immobilized CD98_103-630
T2 construct: GST-CD98 (102-630) and the truncated GST-CD98 (304-414); purchased Novus Biologicals, Littleton, CO
T2 sequence (P08195 102-630 isoform P08195-1): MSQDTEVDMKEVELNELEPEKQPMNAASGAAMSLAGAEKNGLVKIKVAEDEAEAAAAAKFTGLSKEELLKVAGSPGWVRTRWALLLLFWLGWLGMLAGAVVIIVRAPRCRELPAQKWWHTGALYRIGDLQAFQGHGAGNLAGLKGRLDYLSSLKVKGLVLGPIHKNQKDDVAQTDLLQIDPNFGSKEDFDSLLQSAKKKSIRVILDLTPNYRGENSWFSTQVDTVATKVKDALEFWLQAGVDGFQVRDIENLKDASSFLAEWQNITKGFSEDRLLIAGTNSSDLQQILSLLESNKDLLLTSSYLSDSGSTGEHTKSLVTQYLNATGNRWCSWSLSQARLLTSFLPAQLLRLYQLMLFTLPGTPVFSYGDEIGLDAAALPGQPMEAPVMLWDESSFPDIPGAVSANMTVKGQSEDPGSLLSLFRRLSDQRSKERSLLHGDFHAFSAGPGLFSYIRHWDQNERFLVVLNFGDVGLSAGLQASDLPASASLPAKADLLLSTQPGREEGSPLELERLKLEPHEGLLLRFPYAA
Protocol: as §1, §2, §3, §4, §5

[4] = cited from earlier work
[5] = test system: elastolytic protease cathepsins; conditions: cited from earlier work; remark: listed apart in the source
Text: We asked whether the γ-core motif within HBDs represents a primordial HDP that evolved into the full-length molecules of today. To answer the question, we analyzed the structural and biological properties of the β-hairpin peptide of HBD3, which is the smallest substructure encompassing the γ-core motif (Fig. 1B).

HSV-1 = assay: HSV infectivity on Vero cell monolayers (plaque count); assay type: cell-based, Herpes simplex virus; conditions: for IC50: read-out: concentration showing 50% inhibition
Protocol: The antiviral activity of the γ-core peptides γ and ε in oxidized and reduced form was evaluated, in comparison with reduced HBD3, against HIV and HSV. To establish in which phase, if any, the peptides inhibit virus infectivity, we performed experiments in four conditions: a) peptides incubated with the virus before being added to the target cells (“virus pre-treatment”), b) peptides incubated with the cells before exposure to the virus (“cell pre-treatment”), c) simultaneous addition of peptides and virus to the target cells (“co-treatment”), and d) peptides added to the virus-exposed cells (“post-treatment”).
The antiviral activity of the peptides against human immunodeficiency virus (HIV) and herpes simplex virus (HSV) was measured as previously described. For details, see SI. […]
Antiviral Activity against Herpes Simplex Virus (HSV). Vero cells were grown in Dulbecco’s modified Eagle’s medium (DMEM) supplemented with 10% fetal calf serum. HSV-1 carrying a lacZ gene driven by the cytomegalovirus (CMV) IE-1 promoter to express beta-galactosidase was propagated as described elsewhere12. All experiments were conducted in parallel with no-peptide controls. The effect of peptides on the inhibition of HSV infectivity on cell monolayers13 was assessed as follows: (i) For “co-exposure” experiments, the cells were incubated with increasing concentrations of the peptides (1, 5, 10, 20, 50, 100 and 150 µM) and with the viral inoculum for 45 min at 37°C. Non -penetrated viruses were inactivated by citrate buffer at pH 3.0. Monolayers were fixed, stained with 5-bromo-4-chloro-3-indolyl-beta-D-galactopyranoside (X-gal) and plaque […]
numbers were scored. Experiments were performed in triplicate and the % inhibition was calculated vs. the no-peptide control; (ii) For “virus pre-exposure” experiments, approximately 2 x 10^4 PFU of HSV-1 were incubated with increasing concentrations of the peptides for 45 min at 37°C, then titrated on Vero cell monolayers; iii) For “cell pre-exposure” experiments, Vero cells were incubated with increasing concentrations of the peptides for 30 min at 4°C, and infected with serial dilutions of HSV-1 for 45 min at 37°C; and iv) For “po st-exposure” experiments, Vero cell monolayers were incubated with virus for 45 minutes at 37°C and afterwards the peptides were added to the inoculum, followed by an additional incubation period of 30 minutes at 37°C. […]

| Molecule | Koff1 (CD98_304-414) | Koff2 (CD98_304-414) | Kon1 (CD98_304-414) | Kon2 (CD98_304-414) | Koff1 (CD98_103-630) | Koff2 (CD98_103-630) | Kon2 (CD98_103-630) | Kon1 (CD98_103-630) | further results |
| --- | --- | --- | --- | --- | --- | --- | --- | --- | --- |
| CC[C@H](C)[C@@H]1NC(=O)[C@H](CCC(N)=O)NC(=O)[C@H](CCC(=O)O)NC(=O)[C@H](CCC(=O)O)NC(=O)[C@H](CCCCN)NC(=O)[C@@H]2CCCN2C(=O)[C@H](CC(C)C)NC(=O)[C@H](CO)NC(=O)[C@H](CO)NC(=O)[C@H](CC(C)C)NC(=O)[C@H](C(C)C)NC(=O)[C@H](C)NC(=O)[C@@H](NC(C)=O)CSSC[C@@H](C(N)=O)NC(=O)[C@H](CCCCN)NC(=O)CNC1=O [peptide δ, [S^23]HBD3_18–33] (Ac-CAVLSSLPKEEQIGKC-NH2; disulfide 1-16) | – | – | – | – | – | – | – | – | oxidation state (intramolecular disulfide) after 3 h [1]: still mostly reduced |
| Ac-CLPKEEQIGKSSTRGRKSC-NH2 | – | – | – | – | – | – | – | – | not cleaved [2]: found intact after 24 h incubation |
| Ac-CLPKEEQIGKSSTRGRKSCRRKK-NH2 | – | – | – | – | – | – | – | – | cleaved bond [2]: Arg20-Arg21, 6 h; also recorded: Lys22-Lys23, 6 h; also recorded: Cys19-Arg20, 6 h; fragment found (human serum): disulfide-bridged form (oxidized peptide γ) |
| GIINTLQKYYCRVRGGRCAVLSCLPKEEQIGKCSTRGRKCCRRKK | – | – | – | – | – | – | – | – | fragment found [3]: the sequence from 22 to 45 amino acids residues of HBD3; not cleaved (plasma): stable in plasma |
| [S^33,40]HBD3_23–41 [Peptide ε] | 5.38 ± 0.05 ×10^−2 s^−1 | 0.116 ± 0.06 ×10^−3 s^−1 | 0.71 ± 0.04 ×10^3 M^−1s^−1 | 5.67 ± 0.05 x10^−3 s^−1 | 5.48 ± 0.03 ×10^−2 s^−1 | 0.128 ± 0.04 ×10^−3 s^−1 | 1.24 ± 0.04 x10^−3 s^−1 | 0.73 ± 0.02 ×10^3 M^−1s^−1 | fold lower affinity for CD98 than HBD3 (CD98_103-630; from Table 1): 70 fold |
| human β-defensin 3 (GIINTLQKYYCRVRGGRCAVLSCLPKEEQIGKCSTRGRKCCRRKK; not fully specified (bridges); cysteine pairing not given here; UniProt P81534 23-67, looked up) [HBD3, full-length human β-defensin 3, parent host defence peptide, reference compound] | 1.26 ± 0.03 ×10^−2 s^−1 | 0.907 ± 0.007 ×10^−3 s^−1 | 4.65 ± 0.07 ×10^3 M^−1s^−1 | 5.44 ± 0.06 x10^−3 s^−1 | 2.10 ± 0.03 ×10^−2 s^−1 | 1.930 ± 0.03 ×10^−3 s^−1 | 9.03 ± 0.06 x10^−3 s^−1 | 8.51 ± 0.05 ×10^3 M^−1s^−1 | stability in human serum in words [4]: highly stable; degradation by cathepsins in words [5]: rapidly degraded; IC50 (HSV-1; cell pre-treatment): 10 µM; IC50 (HSV-1; co-exposure): 10 µM; efficacy against HSV in words (HSV-1; post-exposure / post-treatment conditions): no efficacy; IC50 (HSV-1; virus pre-exposure): 20 µM |

— PMC4685272 (Scientific Reports, 2015)
